Laboratory results as given in patent US8952024B2, “Herbicidal pyrimidone derivatives” (E I du Pont de Nemours and Company, priority 2009, dated 2015).

Columns and labels:
Assay type in all cases: in vivo
corn (Zea mays) = assay: Test A pre-/postemergence plant response
Description: (§1) Seeds of barnyardgrass (Echinochloa crus-galli), large crabgrass (Digitaria sanguinalis), giant foxtail (Setaria faberii), morningglory (Ipomoea spp.), pigweed (Amaranthus retroflexus), velvetleaf (Abutilon theophrasti), wheat (Triticum aestivum) and corn (Zea mays) were planted into a blend of loam soil and sand and treated preemergence with a directed soil spray using test chemicals formulated in a non-phytotoxic solvent mixture which included a surfactant. At the same time these species were also treated with postemergence applications of test compounds formulated in the same manner.
(§2) Plants ranged in height from two to ten cm and were in the one- to two-leaf stage for the postemergence treatment. Treated plants and untreated controls were maintained in a greenhouse for approximately ten days, after which time all treated plants were compared to untreated controls and visually evaluated for injury. Plant response ratings, summarized in Table A, are based on a 0 to 100 scale where 0 is no effect and 100 is complete control. A dash (-) response means no test result.

[1] = test system: barnyardgrass (Echinochloa crus-galli); assay: Test A pre-/postemergence plant response
Description: as §1, §2

[2] = test system: giant foxtail (Setaria faberii); assay: Test A pre-/postemergence plant response
Description: as §1, §2

[3] = test system: wheat (Triticum aestivum); assay: Test A pre-/postemergence plant response
Description: as §1, §2

[4] = test system: pigweed (Amaranthus retroflexus); assay: Test A pre-/postemergence plant response
Description: as §1, §2

[5] = test system: morningglory (Ipomoea spp.); assay: Test A pre-/postemergence plant response
Description: as §1, §2

[6] = test system: velvetleaf (Abutilon theophrasti); assay: Test A pre-/postemergence plant response
Description: as §1, §2

[7] = test system: large crabgrass (Digitaria sanguinalis); assay: Test A pre-/postemergence plant response
Description: as §1, §2

[8] = test system: barnyardgrass (Echinochloa crus-galli); assay: Test B flooded paddy test; details: for Plant response rating, Flood, Barnyardgrass: 250 g ai/ha, flooded paddy test, visual rating on 0 to 100 scale (0 no effect, 100 complete control) after 13 to 15 days; for Plant response rating, Barnyardgrass: Flood (flooded paddy test), 13 to 15 days; for Barnyardgrass plant response rating: Flood, 31 g ai/ha, scale 0 to 100 (0 no effect, 100 complete control)
Description: (§3) Plant species in the flooded paddy test consisted of rice (Oryza sativa), umbrella sedge (Cyperus difformis), ducksalad (Heteranthera limosa) and barnyardgrass (Echinochloa crus-galli) grown to the 2-leaf stage for testing. At the time of treatment, test pots were flooded with water to 3 cm above the soil surface, treated by application of test compounds directly to the paddy water, and then maintained at that water depth for the duration of the test.
(§4) Treated plants and controls were maintained in a greenhouse for 13 to 15 days, after which time all treated plants were visually evaluated and compared to controls. Plant response ratings, summarized in Table B, are based on a scale of 0 to 100 where 0 is no effect and 100 is complete control. A dash (-) response means no test result.

[9] = test system: umbrella sedge (Cyperus difformis); assay: Test B flooded paddy test; details: for Plant response rating, Flood, Sedge, Umbrella: 250 g ai/ha, flooded paddy test, visual rating on 0 to 100 scale (0 no effect, 100 complete control) after 13 to 15 days; for Plant response rating, Sedge, Umbrella: Flood (flooded paddy test), 13 to 15 days; for Sedge, Umbrella plant response rating: Flood, 31 g ai/ha, scale 0 to 100 (0 no effect, 100 complete control)
Description: as §3, §4

[10] = test system: ducksalad (Heteranthera limosa); assay: Test B flooded paddy test; details: for Plant response rating, Flood, Ducksalad: 250 g ai/ha, flooded paddy test, visual rating on 0 to 100 scale (0 no effect, 100 complete control) after 13 to 15 days; for Plant response rating, Ducksalad: Flood (flooded paddy test), 13 to 15 days; for Ducksalad plant response rating: Flood, 31 g ai/ha, scale 0 to 100 (0 no effect, 100 complete control)
Description: as §3, §4

rice (Oryza sativa) = assay: Test B flooded paddy test; details: for Plant response rating, Flood, Rice: 250 g ai/ha, flooded paddy test, visual rating on 0 to 100 scale (0 no effect, 100 complete control) after 13 to 15 days; for Plant response rating, Rice: Flood (flooded paddy test), 13 to 15 days; for Rice plant response rating: Flood, 31 g ai/ha, scale 0 to 100 (0 no effect, 100 complete control)
Description: as §3, §4

[11] = Postemergence, 125 g ai/ha, 0 to 100 scale where 0 is no effect and 100 is complete control
[12] = Postemergence, 500 g ai/ha, visual injury, 0 to 100 scale (0 no effect, 100 complete control), approx. ten days
[13] = Preemergence, 125 g ai/ha, 0 to 100 scale, 0 = no effect, 100 = complete control
[14] = Preemergence, 500 g ai/ha, 0 to 100 scale, 0 = no effect, 100 = complete control
[15] = 62 g ai/ha, scale of 0 to 100 where 0 is no effect and 100 is complete control
[16] = 125 g ai/ha, scale 0 to 100, 0 is no effect, 100 is complete control
[17] = Postemergence, 500 g ai/ha, 0 to 100 scale, 0 = no effect, 100 = complete control, approx. ten days
[18] = Preemergence, 500 g ai/ha, visual injury, 0 to 100 scale (0 no effect, 100 complete control), approx. ten days

Structure (SMILES): COc1ccc(-n2c(-c3cccc(C)c3)ncc(C(=O)C3=C(O)CCCC3=O)c2=O)cc1 [Compound 212]
- Plant response rating, Corn (corn (Zea mays); [11]): 0
- Corn plant response rating (corn (Zea mays); [12]): 0
- Plant response rating, Corn (corn (Zea mays); [13]): 0
- Plant response rating, Corn (corn (Zea mays); [14]): 0
- Plant response rating, Barnyardgrass [1, 11]: 50
- Barnyardgrass plant response rating [1, 12]: 100
- Plant response rating, Barnyardgrass [1, 13]: 10
- Plant response rating, Barnyardgrass [1, 14]: 90
- Plant response rating, Foxtail, Giant [2, 11]: 0
- Foxtail, Giant plant response rating [2, 12]: 40
- Plant response rating, Foxtail, Giant [2, 13]: 10
- Plant response rating, Foxtail, Giant [2, 14]: 50
- Plant response rating, Wheat [3, 11]: 0
- Wheat plant response rating [3, 12]: 0
- Plant response rating, Wheat [3, 13]: 0
- Plant response rating, Wheat [3, 14]: 0
- Plant response rating, Pigweed [4, 11]: 100
- Pigweed plant response rating [4, 12]: 100
- Plant response rating, Pigweed [4, 13]: 60
- Plant response rating, Pigweed [4, 14]: 90
- Plant response rating, Morningglory [5, 11]: 50
- Morningglory plant response rating [5, 12]: 100
- Plant response rating, Morningglory [5, 13]: 0
- Plant response rating, Morningglory [5, 14]: 80
- Plant response rating, Velvetleaf [6, 11]: 70
- Velvetleaf plant response rating [6, 12]: 70
- Plant response rating, Velvetleaf [6, 13]: 50
- Plant response rating, Velvetleaf [6, 14]: 70
- Plant response rating, Crabgrass, Large [7, 11]: 10
- Crabgrass, Large plant response rating [7, 12]: 30
- Plant response rating, Crabgrass, Large [7, 13]: 0
- Plant response rating, Crabgrass, Large [7, 14]: 40
- Plant response rating, Flood, Barnyardgrass [8]: 50
- Plant response rating, Barnyardgrass [8, 15]: 0
- Plant response rating, Barnyardgrass [8, 16]: 0
- Barnyardgrass plant response rating [8]: 0
- Plant response rating, Flood, Sedge, Umbrella [9]: 95
- Plant response rating, Sedge, Umbrella [9, 15]: 85
- Plant response rating, Sedge, Umbrella [9, 16]: 90
- Sedge, Umbrella plant response rating [9]: 80
- Plant response rating, Flood, Ducksalad [10]: 95
- Plant response rating, Ducksalad [10, 15]: 85
- Plant response rating, Ducksalad [10, 16]: 90
- Ducksalad plant response rating [10]: 85
- Plant response rating, Flood, Rice (rice (Oryza sativa)): 10
- Plant response rating, Rice (rice (Oryza sativa); [15]): 0
- Plant response rating, Rice (rice (Oryza sativa); [16]): 0
- Rice plant response rating (rice (Oryza sativa)): 0

Structure (SMILES): Cc1cc(-n2c(-c3cccc(Br)c3)ncc(C(=O)C3=C(O)CCCC3=O)c2=O)ccc1F [Compound 132]
- Plant response rating, Corn (corn (Zea mays); [11]): 0
- Plant response rating, Corn (corn (Zea mays); [17]): 40
- Plant response rating, Corn (corn (Zea mays); [13]): 0
- Plant response rating, Corn (corn (Zea mays); [18]): 20
- Plant response rating, Barnyardgrass [1, 11]: 10
- Plant response rating, Barnyardgrass [1, 17]: 90
- Plant response rating, Barnyardgrass [1, 13]: 10
- Plant response rating, Barnyardgrass [1, 18]: 100
- Plant response rating, Foxtail, Giant [2, 11]: 0
- Plant response rating, Foxtail, Giant [2, 17]: 70
- Plant response rating, Foxtail, Giant [2, 13]: 20
- Plant response rating, Foxtail, Giant [2, 18]: 90
- Plant response rating, Wheat [3, 11]: 0
- Plant response rating, Wheat [3, 17]: 30
- Plant response rating, Wheat [3, 13]: 0
- Plant response rating, Wheat [3, 18]: 10
- Plant response rating, Pigweed [4, 11]: 60
- Plant response rating, Pigweed [4, 17]: 90
- Plant response rating, Pigweed [4, 13]: 10
- Plant response rating, Pigweed [4, 18]: 80
- Plant response rating, Morningglory [5, 11]: 90
- Plant response rating, Morningglory [5, 17]: 90
- Plant response rating, Morningglory [5, 13]: 0
- Plant response rating, Morningglory [5, 18]: 30
- Plant response rating, Velvetleaf [6, 11]: 100
- Plant response rating, Velvetleaf [6, 17]: 100
- Plant response rating, Velvetleaf [6, 13]: 50
- Plant response rating, Velvetleaf [6, 18]: 80
- Plant response rating, Crabgrass, Large [7, 11]: 20
- Plant response rating, Crabgrass, Large [7, 17]: 70
- Plant response rating, Crabgrass, Large [7, 13]: 50
- Plant response rating, Crabgrass, Large [7, 18]: 100
- Plant response rating, Flood, Barnyardgrass [8]: 30
- Plant response rating, Barnyardgrass [8, 15]: 0
- Plant response rating, Barnyardgrass [8, 16]: 0
- Barnyardgrass plant response rating [8]: 0
- Plant response rating, Flood, Sedge, Umbrella [9]: 100
- Plant response rating, Sedge, Umbrella [9, 15]: 0
- Plant response rating, Sedge, Umbrella [9, 16]: 60
- Sedge, Umbrella plant response rating [9]: 0
- Plant response rating, Flood, Ducksalad [10]: 100
- Plant response rating, Ducksalad [10, 15]: 50
- Plant response rating, Ducksalad [10, 16]: 80
- Ducksalad plant response rating [10]: 0
- Plant response rating, Flood, Rice (rice (Oryza sativa)): 0
- Plant response rating, Rice (rice (Oryza sativa); [15]): 0
- Plant response rating, Rice (rice (Oryza sativa); [16]): 0
- Rice plant response rating (rice (Oryza sativa)): 0
